Data reported in patent publication US20240174648A1, “Small Molecule Compound” (Technoderma Medicines Pte Ltd, priority 2019, published 2024).

Assays:
Assay type in all cases: biochemical
[1] = biological target: Tyk2 (Homo sapiens, UniProt P29597); assay: JAK kinase inhibition assay (EZ Reader, peptide substrate phosphorylation) - Tyk2; settings: Tyk2 kinase 1 nM; 8 concentration points, max 10 μM
Method in brief: (§1)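 Microfluidic mobility-shift detection of fluorescent peptide substrate phosphorylation, with JAK1 at 20 nM and JAK2, JAK3 and Tyk2 each at 1 nM final, in 20 mM HEPES pH 7.4, 10 mM MgCl2, 1 mM DTT. Reactions run at room temperature to 20–30% conversion, then EDTA-stopped. Compounds tested at 8 three-fold dilutions from 10 μM top final; IC50 from conversion curves.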

[2] = biological target: JAK1 (Homo sapiens, UniProt P23458); assay: JAK kinase inhibition assay (EZ Reader, peptide substrate phosphorylation) - JAK1; settings: JAK1 kinase 20 nM; 8 concentration points, max 10 μM
Method in brief: as §1

[3] = biological target: JAK2 (Homo sapiens, UniProt O60674); assay: JAK kinase inhibition assay (EZ Reader, peptide substrate phosphorylation) - JAK2; settings: JAK2 kinase 1 nM; 8 concentration points, max 10 μM
Description: (§2) Assay for Identifying Inhibitory Effects of Compounds on JAK Kinases
(§3) Janus kinases (JAK), including JAK1, JAK2, JAK3 and Tyk2, transduce a cytokine-mediated signal through a JAK-STAT pathway. The kinases are 120-140 kDa in size and have 7 determined homology regions: JH1 to JH7. JH1 is an important region for enzymatic activity and has typical characteristics of tyrosine kinases. Phosphorylation of tyrosine leads to a change in the conformation of JAK protein, thereby promoting binding of substrate. The JAK-STAT system includes three main parts: receptors penetrating a cell membrane, Janus kinases binding to the receptors, and signal transducers and activators of transcription (STAT) for transmitting signals to a nucleus and DNA. When cytokines bind to receptors, JAK phosphorylates the receptors and attracts STAT proteins. The STAT proteins are also phosphorylated and combined with one another to form dimers. The dimers enter the nucleus and bind to DNA, thereby leading to gene transcription.
(§4) EZ Reader from PerkinElmer can be used to detect the phosphorylation of polypeptide substrates catalyzed by kinases. The device is based on microfluidic techniques, and can directly detect fluorescently labeled substrates and products. The separation step is achieved by controlling the pressure and electric field strength in the microfluidic chip. In kinase assays, a product conversion ratio is usually controlled to be 20-30%. A biological test is used to identify inhibitory effects of compounds on JAKs.
(§5) Compound powder was dissolved in DMSO, sealed and stored in a freezer under −20° C. The in-house compound Ref1 was used as a positive control for JAK1, JAK2 and Tyk2 tests, and Ref2 was used as a positive control for JAK3 tests.
(§6) S2.8. Assay buffer: 20 mM HEPES buffer, pH 7.4, 10 mM magnesium chloride, 0.01% bovine serum albumin BSA, 0.0005% Tween-20 and 1 mM dithiothreitol solution.
(§7) S2.9. Stop buffer: 180 mM HEPES buffer, 20 mM ethylenediaminetetraacetic acid and 0.2% coating reagent 3.
(§8) S2.10. Separation buffer: 100 mM HEPES buffer, 10 mM ethylenediaminetetraacetic acid, 0.0005% Tween 20, 0.1% coating reagent 3 and 1% dimethyl sulfoxide.
The compound was dissolved in dimethyl sulfoxide and diluted to 10 mM concentration, a certain volume of solution was taken and diluted to 0.6 mM concentration, 10 μL of the 0.6 mM dilution was added to a 384-well microplate, and then was diluted 3-fold with a total of 8 concentration points.
Positive control (HPE1): Ref1, final concentration: 10 μM […]
(§9) Negative control (ZPE): DMSO, final content: 1.6%
(§10) Compounds: maximum final concentration: 10 μM; 3-fold dilution, 8 concentration points and 2 duplicates.
(§11) S4.1. 250 nL of the compound was added to each well of the assay microplate by using ECHO, and centrifuged at 1000 rpm for 1 minute.
(§12) S4.2. 5 μL of the assay buffer was added and agitated for a few seconds to fully dissolve the compound.
(§13) S4.3. 5 μL of 3× substrate solution and 5 μL of 3× kinase solution were added and centrifuged at 800 rpm for 1 minute.
(§14) S4.4. Final concentrations of JAK1, JAK2, JAK3 and Tyk2 kinases in the reaction system were 20 nM, 1 nM, 1 nM and 1 nM respectively.
(§15) S4.5. Incubation at room temperature, where kinases had time differences, and different batches of kinases had time differences.
(§16) S4.6. When 20%-30% of the reaction completed, 15 μL of stop buffer was added to stop the reaction, and centrifuged at 1000 rpm for 2 minutes.
(§17) S4.7. The microplates were placed on EZ Reader for reading.
(§18) S4.8. Readings on EZ Reader were calculated by using a peak height, where product conversion ratio (%)=product/(product+substrate)*100.
(§19) 5. Data Processing: IC50 calculation
(§20) A graphing software Xlfit was used to form a concentration curve of the test compound, and an IC50 value was calculated.
(§21) “A” means “≥10 μM”; “B” means “≥1 μM and <10 μM”; “C” means “≥0.1 μM and <1 μM”; and “D” means “<0.1 μM”.

[4] = biological target: T1, JAK3 (Homo sapiens, UniProt P52333); assay: JAK kinase inhibition assay (EZ Reader, peptide substrate phosphorylation) - JAK3; settings: JAK3 kinase 1 nM; 8 concentration points, max 10 μM
T1 sequence (P52333 1-1124): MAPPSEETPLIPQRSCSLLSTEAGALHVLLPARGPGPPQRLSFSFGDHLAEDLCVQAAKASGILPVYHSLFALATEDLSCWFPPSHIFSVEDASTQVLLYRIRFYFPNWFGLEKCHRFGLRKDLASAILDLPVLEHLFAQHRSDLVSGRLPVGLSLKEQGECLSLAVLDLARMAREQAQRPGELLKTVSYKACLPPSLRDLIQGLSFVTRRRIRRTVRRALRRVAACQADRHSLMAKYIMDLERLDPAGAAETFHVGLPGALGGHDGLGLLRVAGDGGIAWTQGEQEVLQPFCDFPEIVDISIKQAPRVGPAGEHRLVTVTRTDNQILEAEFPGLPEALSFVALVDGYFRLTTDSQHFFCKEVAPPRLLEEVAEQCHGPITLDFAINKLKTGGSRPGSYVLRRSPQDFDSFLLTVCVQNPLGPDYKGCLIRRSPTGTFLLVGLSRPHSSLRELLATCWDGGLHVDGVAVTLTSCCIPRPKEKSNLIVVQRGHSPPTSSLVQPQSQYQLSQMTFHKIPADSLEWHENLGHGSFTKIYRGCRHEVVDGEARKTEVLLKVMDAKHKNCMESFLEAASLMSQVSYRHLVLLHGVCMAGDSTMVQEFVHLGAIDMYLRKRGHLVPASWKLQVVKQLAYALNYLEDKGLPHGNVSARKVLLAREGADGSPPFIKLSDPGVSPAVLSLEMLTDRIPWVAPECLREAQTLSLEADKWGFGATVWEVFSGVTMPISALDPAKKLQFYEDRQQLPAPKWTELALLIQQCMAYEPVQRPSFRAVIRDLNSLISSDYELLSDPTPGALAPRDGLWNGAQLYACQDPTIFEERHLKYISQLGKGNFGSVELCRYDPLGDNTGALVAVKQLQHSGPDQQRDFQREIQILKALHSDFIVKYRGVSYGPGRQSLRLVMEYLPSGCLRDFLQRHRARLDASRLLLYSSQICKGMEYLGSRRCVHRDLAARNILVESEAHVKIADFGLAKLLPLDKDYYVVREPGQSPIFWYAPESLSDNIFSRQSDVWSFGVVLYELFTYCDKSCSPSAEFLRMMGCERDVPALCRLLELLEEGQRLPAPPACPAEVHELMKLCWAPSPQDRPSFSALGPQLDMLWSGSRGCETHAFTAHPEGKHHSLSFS
Description: as §2, §3, §4, §5, §6, §7, §8
The compound was dissolved in dimethyl sulfoxide and diluted to 10 mM concentration, a certain volume of solution was taken and diluted to 0.6 mM concentration, 10 μL of the 0.6 mM dilution was added to a 384-well microplate, and then was diluted 3-fold with a total of 8 concentration points. […]
Positive control (HPE1): Ref2, final concentration: 10 μM
as §9, §10, §11, §12, §13, §14, §15, §16, §17, §18, §19, §20, §21

Sequence of JAK1 (P23458 whole entry): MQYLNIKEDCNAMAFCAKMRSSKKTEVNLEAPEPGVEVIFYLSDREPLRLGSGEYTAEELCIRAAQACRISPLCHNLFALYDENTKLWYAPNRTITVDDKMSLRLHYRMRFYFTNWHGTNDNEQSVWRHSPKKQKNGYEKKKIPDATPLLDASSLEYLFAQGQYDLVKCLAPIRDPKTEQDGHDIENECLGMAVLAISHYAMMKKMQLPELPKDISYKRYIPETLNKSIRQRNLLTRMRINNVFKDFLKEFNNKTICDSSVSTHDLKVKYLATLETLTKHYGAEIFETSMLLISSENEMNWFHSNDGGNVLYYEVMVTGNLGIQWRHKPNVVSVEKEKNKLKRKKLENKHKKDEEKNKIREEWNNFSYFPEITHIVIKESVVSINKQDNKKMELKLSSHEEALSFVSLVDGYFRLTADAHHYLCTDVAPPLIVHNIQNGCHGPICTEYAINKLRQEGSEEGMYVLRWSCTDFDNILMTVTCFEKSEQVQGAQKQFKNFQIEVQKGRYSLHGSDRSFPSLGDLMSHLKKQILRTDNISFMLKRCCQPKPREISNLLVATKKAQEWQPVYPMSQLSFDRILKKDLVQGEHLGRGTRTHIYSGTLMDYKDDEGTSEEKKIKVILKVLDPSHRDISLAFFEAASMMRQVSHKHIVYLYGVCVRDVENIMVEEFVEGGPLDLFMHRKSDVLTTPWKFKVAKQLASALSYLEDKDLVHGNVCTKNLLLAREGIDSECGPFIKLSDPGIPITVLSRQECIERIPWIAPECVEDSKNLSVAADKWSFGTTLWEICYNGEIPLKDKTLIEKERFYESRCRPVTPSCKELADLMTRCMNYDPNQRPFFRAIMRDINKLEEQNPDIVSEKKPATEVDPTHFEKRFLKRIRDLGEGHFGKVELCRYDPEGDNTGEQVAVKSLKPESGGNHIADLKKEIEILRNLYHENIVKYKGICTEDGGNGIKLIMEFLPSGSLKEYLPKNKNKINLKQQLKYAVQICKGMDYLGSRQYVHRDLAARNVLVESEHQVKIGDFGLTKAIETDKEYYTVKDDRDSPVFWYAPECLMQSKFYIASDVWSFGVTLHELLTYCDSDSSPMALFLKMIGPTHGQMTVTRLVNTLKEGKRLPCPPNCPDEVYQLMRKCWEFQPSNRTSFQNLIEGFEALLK
Sequence of JAK2 (O60674 whole entry): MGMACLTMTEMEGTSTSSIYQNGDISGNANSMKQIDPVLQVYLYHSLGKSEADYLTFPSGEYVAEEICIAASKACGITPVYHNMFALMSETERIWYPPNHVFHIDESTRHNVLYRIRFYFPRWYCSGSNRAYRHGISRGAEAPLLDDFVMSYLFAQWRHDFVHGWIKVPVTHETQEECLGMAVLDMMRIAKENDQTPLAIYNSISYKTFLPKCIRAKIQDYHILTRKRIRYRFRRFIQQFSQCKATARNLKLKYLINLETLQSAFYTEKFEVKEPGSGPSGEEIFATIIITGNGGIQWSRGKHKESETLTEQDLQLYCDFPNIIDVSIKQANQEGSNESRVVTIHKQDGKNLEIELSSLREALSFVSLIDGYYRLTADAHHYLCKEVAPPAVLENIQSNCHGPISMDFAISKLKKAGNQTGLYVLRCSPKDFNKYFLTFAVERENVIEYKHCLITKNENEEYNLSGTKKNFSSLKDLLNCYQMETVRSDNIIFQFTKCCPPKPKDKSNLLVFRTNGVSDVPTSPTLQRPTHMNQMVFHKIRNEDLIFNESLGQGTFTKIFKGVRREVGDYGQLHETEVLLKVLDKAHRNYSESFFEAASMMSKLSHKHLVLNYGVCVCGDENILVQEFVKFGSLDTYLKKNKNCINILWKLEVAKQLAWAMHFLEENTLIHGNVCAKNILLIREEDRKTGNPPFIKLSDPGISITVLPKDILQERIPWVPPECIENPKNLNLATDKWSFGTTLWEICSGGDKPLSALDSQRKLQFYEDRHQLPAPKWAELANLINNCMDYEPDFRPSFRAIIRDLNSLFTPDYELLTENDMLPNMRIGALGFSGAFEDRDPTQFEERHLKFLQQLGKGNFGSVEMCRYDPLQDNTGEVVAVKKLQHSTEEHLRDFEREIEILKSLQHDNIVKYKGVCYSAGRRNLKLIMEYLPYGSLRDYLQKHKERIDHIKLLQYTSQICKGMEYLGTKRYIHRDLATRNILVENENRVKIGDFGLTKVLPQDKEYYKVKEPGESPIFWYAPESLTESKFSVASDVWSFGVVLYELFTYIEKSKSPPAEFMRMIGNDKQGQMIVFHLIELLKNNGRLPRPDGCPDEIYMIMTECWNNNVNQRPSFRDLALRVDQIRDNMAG
Sequence of Tyk2 (P29597 whole entry): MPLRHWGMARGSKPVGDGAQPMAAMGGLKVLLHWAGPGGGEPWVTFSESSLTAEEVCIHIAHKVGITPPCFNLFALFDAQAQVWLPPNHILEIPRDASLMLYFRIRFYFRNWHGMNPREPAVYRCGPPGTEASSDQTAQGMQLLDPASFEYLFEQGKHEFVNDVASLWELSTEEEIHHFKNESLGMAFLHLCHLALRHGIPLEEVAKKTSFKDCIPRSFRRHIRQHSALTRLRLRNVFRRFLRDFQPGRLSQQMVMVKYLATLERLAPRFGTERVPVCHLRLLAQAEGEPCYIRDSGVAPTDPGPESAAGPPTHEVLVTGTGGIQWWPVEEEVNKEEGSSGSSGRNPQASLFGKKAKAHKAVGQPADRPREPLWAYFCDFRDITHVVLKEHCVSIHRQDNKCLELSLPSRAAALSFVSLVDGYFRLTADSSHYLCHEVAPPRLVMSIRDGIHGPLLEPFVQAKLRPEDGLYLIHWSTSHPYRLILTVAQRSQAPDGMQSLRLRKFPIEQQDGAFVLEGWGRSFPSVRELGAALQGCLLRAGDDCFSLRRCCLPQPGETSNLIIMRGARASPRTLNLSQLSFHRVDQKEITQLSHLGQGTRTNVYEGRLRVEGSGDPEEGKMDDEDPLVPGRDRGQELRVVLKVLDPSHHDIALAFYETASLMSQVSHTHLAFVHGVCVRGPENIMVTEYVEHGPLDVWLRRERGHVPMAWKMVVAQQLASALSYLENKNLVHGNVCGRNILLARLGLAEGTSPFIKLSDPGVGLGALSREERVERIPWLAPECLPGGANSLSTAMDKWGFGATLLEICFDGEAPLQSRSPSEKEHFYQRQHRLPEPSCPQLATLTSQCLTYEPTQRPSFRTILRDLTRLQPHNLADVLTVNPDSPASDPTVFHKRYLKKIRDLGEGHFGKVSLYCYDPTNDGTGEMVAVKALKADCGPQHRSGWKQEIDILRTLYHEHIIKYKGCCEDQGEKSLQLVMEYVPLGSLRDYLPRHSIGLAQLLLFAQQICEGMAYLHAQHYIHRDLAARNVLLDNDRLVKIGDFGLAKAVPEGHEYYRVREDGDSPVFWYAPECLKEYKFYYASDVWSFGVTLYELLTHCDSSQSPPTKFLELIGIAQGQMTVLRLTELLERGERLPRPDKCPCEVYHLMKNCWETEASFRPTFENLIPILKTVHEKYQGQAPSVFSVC

SMILES | IC50 [1] [µM] | IC50 [2] [µM] | IC50 [3] [µM] | IC50 [4] [µM]
Cn1cc(Nc2nccc(-c3ccc(C(=O)N4CCS(=O)(=O)CC4)nc3)n2)cn1 [TDM-180764, (1,1-sulfur dioxide) (5-(2-((1-methyl-1H-pyrazol-4-yl)amino)pyrimidin-4-yl)pyridin-2-yl)methanone] | 1 to 10 | 1 to 10 | 1 to 10 | ≥ 10
Cn1cc(Nc2nccc(-c3ccc(NS(=O)(=O)CCC(F)(F)F)cc3)n2)cn1 [TDM-180850, 3,3,3-trifluoro-N-(4-(2-((1-methyl-1H-pyrazol-4-yl)amino)pyrimidin-4-yl)phenyl)propyl-1-sulfonamide] | 0.1 to 1 | 0.1 to 1 | 0.1 to 1 | ≥ 10
CN1CCN(c2ccc(-c3ccnc(Nc4cnn(C)c4)n3)cc2)CC1 [TDM-180828] | 1 to 10 | 1 to 10 | 1 to 10 | ≥ 10
Cc1cc(-c2ccnc(Nc3cnn(C)c3)n2)ccc1C(=O)NCC(F)(F)F [TDM-180780, 2-methyl-4-(2-((1-methyl-1H-pyrazol-4-yl)amino)pyrimidin-4-yl)-N-(2,2,2-trifluoroethyl)benzamide] | 0.1 to 1 | 0.1 to 1 | 1 to 10 | > 10
Cn1cc(Nc2nccc(-c3ccc(NC(=O)C(F)F)cc3)n2)cn1 [TDM-180805, 2,2-difluoro-N-(4-(2-((1-methyl-1H-pyrazol-4-yl)amino)pyrimidin-4-yl)phenyl)acetamide] | 0.1 to 1 | 0.1 to 1 | 0.1 to 1 | 1 to 10
Cn1cc(Nc2nccc(-c3ccc(C(=O)NCC(F)(F)F)nc3)n2)cn1 [TDM-180756, 5-(2-((1-methyl-1H-pyrazole-4-yl)amino)pyrimidin-4-yl)-N-(2,2,2-trifluoroethyl)pyridinecarboxamide] | 0.1 to 1 | 0.1 to 1 | 0.1 to 1 | 1 to 10
CCS(=O)(=O)Nc1ccc(-c2ccnc(Nc3cnn(C)c3)n2)cc1 [TDM-180768, N-(4-(2-((1-methyl-1H-pyrazol-4-yl)amino)pyrimidin-4-yl)phenyl)ethanesulfonamide] | 0.1 to 1 | 0.1 to 1 | 0.1 to 1 | 1 to 10
Cn1cc(Nc2nccc(-c3ccc(NC(=O)CC4CC4)cc3)n2)cn1 [TDM-180804, 2-cyclopropyl-N-(4-(2-((1-methyl-1H-pyrazol-4-yl)amino)pyrimidin-4-yl)phenyl)acetamide] | 0.1 to 1 | 0.1 to 1 | 0.1 to 1 | 1 to 10
Cn1cc(Nc2nccc(-c3ccc(NC(=O)C4(C)CC4)cc3)n2)cn1 [TDM-180802, 1-methyl-N-(4-(2-((1-methyl-1H-pyrazol-4-yl)amino)pyrimidin-4-yl)phenyl)cyclopropane-1-carboxamide] | 0.1 to 1 | 0.1 to 1 | 0.1 to 1 | ≥ 10
Cn1cc(Nc2nccc(-c3ccc(NC(=O)CC4CC4)c4cc[nH]c34)n2)cn1 [TDM-180933] | ≥ 10 | 1 to 10 | – | –

Further lines, results first:

IC50 [1] [µM] | IC50 [2] [µM] | IC50 [3] [µM] | IC50 [4] [µM] | SMILES
1 to 10 | 0.1 to 1 | 0.1 to 1 | 1 to 10 | COCCC(=O)Nc1ccc(-c2ccnc(Nc3cnn(C)c3)n2)cn1 [TDM-180814, 3-methoxy-N-(5-(2-((1-methyl-1H-pyrazol-4-yl)amino)pyrimidin-4-yl)pyridin-2-yl)propanamide]
1 to 10 | 0.1 to 1 | 1 to 10 | 1 to 10 | Cn1cc(Nc2nccc(-c3ccc(NC(=O)C4CCC4)nc3)n2)cn1 [TDM-180823, N-(5-(2-((1-methyl-1H-pyrazol-4-yl)amino)pyrimidin-4-yl)pyridin-2-yl)cyclobutanemethyl]
≥ 10 | ≥ 10 | – | – | COCC(=O)Nc1cc(-c2ccnc(Nc3cnn(C)c3)n2)ccn1 [TDM-180777, 2-methoxy-N-(4-(2-((1-methyl-1H-pyrazol-4-yl)amino)pyrimidin-4-yl)pyridin-2-yl)acetamide]
≥ 10 | ≥ 10 | – | – | Cn1cc(Nc2nccc(-c3ccnc(NC(=O)C4CC4)c3)n2)cn1 [TDM-180773, N-(4-(2-((1-methyl-1H-pyrazol-4-yl)amino)pyrimidin-4-yl)-pyridin-2-yl)cyclopropanemethane]
1 to 10 | 0.1 to 1 | – | – | Cn1cc(Nc2nccc(-c3cnc(NC(=O)CC#N)c(F)c3)n2)cn1 [TDM-180890, 2-cyano-N-(3-fluoro-5-(2-((1-methyl-1H-pyrazol-4-yl)amino)pyrimidin-4-yl)pyridin-2-yl)acetamide]
< 0.1 | < 0.1 | – | – | Cn1cc(Nc2nccc(-c3ccc(NC(=O)[C@@H]4CC4(F)F)nc3)n2)cn1 [TDM-180935, (S)-2,2-difluoro-N-(5-(2-((1-methyl-1H-pyrazol-4-yl)amino)pyrimidin-4-yl)pyridin-2-yl)cyclopropane-1-carboxamide]
